Experimental findings from ChEMBL document CHEMBL4699523, “Predicting the Human Hepatic Clearance of Acidic and Zwitterionic Drugs” (J Med Chem, 2020) are described below.

The nature of data set [1]: clinical. To be noted: human, blood and plasma, iv.
Description: Ratio of drug level in human blood to plasma administered through iv dosing by LC-MS/MS analysis
The conditions of data set [2]: cynomolgus monkey, in vivo, iv, 1 mg/kg.
Data set [3] can be described thus: physchem.
The conditions of data set [4]: rat, in vivo, iv, 1 mg/kg.
Data set [5] is described as follows: in vitro. To be noted: dog, MDCK, pH 7.4.
Description: Apparent permeability in dog MDCKII-LE cells at pH 7.4
Data set [6] in a line: in vitro. The conditions noted are these: rat, plasma.
Description: Fraction unbound in rat plasma
Data set [7] in a line: in vitro. The conditions noted are these: human, cryopreserved hepatocytes.
Data set [8] in a line: physchem. The conditions noted are these: buffer, pH 7.4.
Data set [9] is described as follows: in vivo. To be noted: Wistar Hannover, rat, blood and plasma, iv.
Description: Ratio of drug level in Wistar Hannover rat blood to plasma administered through iv dosing by LC-MS/MS analysis
The nature of data set [10]: in vitro. To be noted: human, plasma.
Description: Fraction unbound in human plasma
The conditions of data set [11]: human, in vivo, iv.
Description: Hepatic clearance in human administered through iv dosing
Data set [12] is described as follows: in vitro. The conditions noted are these: cynomolgus monkey, plasma.
Description: Fraction unbound in cynomolgus monkey plasma
A short description of data set [13]: in vivo. To be noted: cynomolgus monkey, blood and plasma, iv.
Description: Ratio of drug level in cynomolgus monkey blood to plasma administered through iv dosing by LC-MS/MS analysis
Data set [14] can be described thus: physchem. The source holds these as a separate data set.
Data set [15] is described as follows: Hepatic clearance in cynomolgus monkey administered through oral dosing. To be noted: in vivo. It is filed as ADME, Macaca fascicularis.
The nature of data set [16]: Ratio of drug level in cynomolgus monkey blood to plasma administered through oral dosing by LC-MS/MS analysis. Format: ADME, cell-free, Macaca fascicularis. The conditions noted are these: blood and plasma.
A short description of data set [17]: Ratio of drug level in human blood to plasma administered through oral dosing by LC-MS/MS analysis. It is filed as ADME, cell-free. To be noted: blood and plasma.
Data set [18] can be described thus: Hepatic clearance in human administered through oral dosing. It is filed as ADME.

Structures are written as SMILES.

One may read the pKa as the pH at which an ionisable group is half protonated. As usually defined, the Papp is a coefficient for how fast a substance crosses the barrier. For orientation: CLint scaled means the capacity of the preparation to metabolise the compound, expressed as a volume cleared per time. As a reminder, the logD is lipophilicity at a set pH, counting ionised and neutral species. `Cc1nn(-c2cnc(OCC(C)C)c(Cl)c2)c2ccc(C(=O)NS(C)(=O)=O)cc12` [PF-05241328]: the figures for the blood plasma ratio in data set [1], in [9] and in data set [13] were 0.56, 0.55 and 0.56, respectively. Moreover, the CLH in data set [2] came to 30.1 mL/min/kg; in data set [4] it was 3.1 mL/min/kg; in data set [11], 5.7 mL/min/kg. The same molecule gave a pKa at 0.3 h in data set [3] of 3.6. Besides, the apparent permeability (Papp) in data set [5] amounted to 3.9 ×10⁻⁶ cm/s. In addition, the fraction unbound in [6] worked out at 0.001; in [10], 0.002; in data set [12] it was 0.002. Further, the intrinsic clearance (CLint scaled) at 2 h, 1 µM in data set [7] came to 37 mL/min/kg. Moreover, the logD in data set [8] is 2.

Consider `COc1ccccc1Oc1c(NS(=O)(=O)c2ccc(C(C)(C)C)cc2)nc(-c2ncccn2)nc1OCCO` [BOSENTAN], for which the blood plasma ratio in data set [1] is 0.668; in data set [9], 0.69; in data set [13], 1.19. In addition, the CLH in data set [2] is 33.1 mL/min/kg; in [4], 15.9 mL/min/kg; in data set [11], 2.2 mL/min/kg. In [3], the pKa at 0.3 h was found to be 4.9. In [5], this molecule returned an apparent permeability (Papp) of 7.4 ×10⁻⁶ cm/s. Moreover, the fraction unbound came out at 0.0121 in data set [6], 0.0285 in [10] and 0.0422 in data set [12]. In data set [7], this molecule gave a CLint scaled at 2 h, 1 µM of 16 mL/min/kg. For the same molecule, in [8], the logD worked out at 1.2.

Take `O=C(O)[C@@H]1CCC[C@H]1C(=O)c1ccc(-c2ccc(Nc3nc4ccc(F)cc4s3)c(F)c2)cc1`: the figures for the pKa at 0.3 h in data set [3] and in data set [14] were 4.7 and 2.4, respectively. Moreover, the Papp in data set [5] is 2.3 ×10⁻⁶ cm/s. In data set [7], this molecule came in with a CLint scaled at 2 h, 1 µM of 201 mL/min/kg. The molecule further had a pH-dependent lipophilicity (logD) in [8] greater than 3.5. Moreover, the CLH amounted to 2 mL/min/kg in data set [15] and 0.59 mL/min/kg in data set [18]. Also, the values for the fraction unbound in data set [10] and in [12] were 0.00086 and 0.0014, respectively. For the same molecule, the results for the blood plasma ratio in [16] and in data set [17] were 0.617 and 0.653, respectively.

For the molecule `O=C(O)C[C@H](O)C[C@H](O)/C=C/c1c(C2CC2)nc2ccccc2c1-c1ccc(F)cc1` [PITAVASTATIN], the blood plasma ratio in [1], in data set [9] and in [13] was 0.65 each time. For the same molecule, the CLH turned out to be 17.8 mL/min/kg in [2], 7.1 mL/min/kg in data set [4] and 5.6 mL/min/kg in data set [11]. Moreover, the pKa at 0.3 h in [3] amounted to 4.7; in [14], 5.1. Besides, the Papp in data set [5] is 8.5 ×10⁻⁶ cm/s. Moreover, the fraction unbound was determined as 0.008 in [6], 0.008 in data set [10] and 0.0263 in data set [12]. In addition, the intrinsic metabolic clearance (CLint scaled) at 2 h, 1 µM in [7] stood at 31 mL/min/kg. In addition, in data set [8], the logD is 1.2.

The molecule `Cc1ccc(NC(=O)C2(c3ccc4c(c3)OC(F)(F)O4)CC2)nc1-c1cccc(C(=O)O)c1` [LUMACAFTOR] returned a pKa at 0.3 h in data set [3] of 4.2. Besides, in data set [5], the apparent permeability coefficient (Papp) is 25 ×10⁻⁶ cm/s. This molecule yielded a CLint scaled at 2 h, 1 µM in data set [7] of 27 mL/min/kg. In addition, the pH-dependent lipophilicity (logD) in [8] came out at 2.6. For the same molecule, the values for the CLH in [15] and in data set [18] were 0.72 mL/min/kg and 0.26 mL/min/kg, respectively. Besides, the fraction unbound in [10] was 0.0032; in [12], 0.0045. Also, the blood plasma ratio in data set [16] and in data set [17] was 0.575 each time.

In the case of `CC[C@H](C)C(=O)O[C@H]1C[C@H](O)C=C2C=C[C@H](C)[C@H](CC[C@@H](O)C[C@@H](O)CC(=O)O)[C@H]21` [PRAVASTATIN], the blood plasma ratio in data set [1] worked out at 0.55; in data set [9] it was 0.595; in data set [13], 0.651. Besides, the values for the CLH in [2], in [4] and in data set [11] were 34.6 mL/min/kg, 19.3 mL/min/kg and 7.3 mL/min/kg, respectively. In addition, the pKa at 0.3 h in [3] is 4.3. For the same molecule, the apparent permeability coefficient (Papp) in data set [5] is 0.46 ×10⁻⁶ cm/s. Also, the fraction unbound in data set [6] was found to be 0.537; in data set [10] it was 0.634; in data set [12] it was 0.649. In [7], this molecule showed a CLint scaled at 2 h, 1 µM of 0.77 mL/min/kg. For the same molecule, the logD in [8] is -0.4.

`Cc1cc(O[C@H](CCC(F)(F)F)c2ccc(C(=O)NCCC(=O)O)cc2)cc(C)c1-c1ccc(C(C)(C)C)cc1` displayed a pKa at 0.3 h in data set [3] of 4.4. In data set [7], this molecule had a CLint scaled at 2 h, 1 µM of 1680 mL/min/kg. Besides, the logD in data set [8] was greater than 3.5. In addition, the CLH in data set [15] was 0.29 mL/min/kg; in data set [18], 0.078 mL/min/kg. For the same molecule, the values for the fraction unbound in data set [10] and in data set [12] were 3.6e-05 and 5.6e-05, respectively. Also, the blood plasma ratio came to 0.823 in data set [16] and 0.605 in data set [17].

With `CC(C)c1nc(N(C)S(C)(=O)=O)nc(-c2ccc(F)cc2)c1/C=C/[C@@H](O)C[C@@H](O)CC(=O)O` [ROSUVASTATIN], the blood plasma ratio worked out at 0.569 in data set [1], 0.588 in data set [9] and 0.735 in [13]. Further, the CLH in data set [2] came out at 27.9 mL/min/kg; in data set [4], 28.4 mL/min/kg; in [11] it was 6.8 mL/min/kg. This molecule yielded a pKa at 0.3 h in data set [3] of 4.3. Also, in [5], the Papp worked out at 0.89 ×10⁻⁶ cm/s. For the same molecule, the fraction unbound in [6] came to 0.0421; in data set [10], 0.158; in data set [12], 0.155. Besides, the intrinsic metabolic clearance (CLint scaled) at 2 h, 1 µM in [7] was 0.86 mL/min/kg. In [8], this molecule registered a logD of 0.1.

For the molecule `CCCc1nc2c(C)cc(-c3nc4ccccc4n3C)cc2n1Cc1ccc(-c2ccccc2C(=O)O)cc1`, the results for the blood plasma ratio in [1], in [9] and in [13] were 0.61, 0.65 and 0.61, respectively. For the same molecule, the CLH turned out to be 9.2 mL/min/kg in [2], 4.3 mL/min/kg in [4] and 10.2 mL/min/kg in [11]. The pKa at 0.3 h in data set [3] stood at 4.2; in [14], 3.2. In [5], the Papp stood at 12 ×10⁻⁶ cm/s. The results for the fraction unbound in data set [6], in data set [10] and in [12] were 0.006, 0.006 and 0.0125, respectively. Moreover, the intrinsic metabolic clearance (CLint scaled) at 2 h, 1 µM in data set [7] was 39 mL/min/kg. Further, the pH-dependent lipophilicity (logD) in data set [8] came out at 2.4.

The molecule `Cn1cc(C(=O)O)c2ccc(N3CCC(OCc4c(-c5c(Cl)cccc5Cl)noc4C4CC4)CC3)cc21` [TERN-101] yielded an apparent permeability coefficient (Papp) in [5] of 17 ×10⁻⁶ cm/s. In data set [7], this molecule came in with a CLint scaled at 2 h, 1 µM of 111 mL/min/kg. Also, in [8], the logD was 2.7. The CLH stood at 6 mL/min/kg in [15] and 8.8 mL/min/kg in data set [18]. In addition, the fraction unbound in data set [10] is 0.0122; in [12], 0.0049. Besides, the blood plasma ratio in data set [16] stood at 1.1; in [17], 0.612.

`CCC[C@H](c1ccc(C(=O)NCCC(=O)O)cc1)[C@H](c1ccc(Cl)cc1)c1c[nH]c2c(F)cc(C)cc12` [MK-3577] yielded a pKa at 0.3 h in [3] of 4.1. For the same molecule, the intrinsic clearance (CLint scaled) at 2 h, 1 µM in [7] is 571 mL/min/kg. In data set [8], this molecule registered a logD greater than 3.5. The CLH in [15] was 9.3 mL/min/kg; in data set [18] it was 4.9 mL/min/kg. For the same molecule, the fraction unbound amounted to 0.00025 in [10] and 0.00023 in data set [12]. In addition, the blood plasma ratio amounted to 0.95 in [16] and 0.55 in [17].

`COc1ccccc1[C@H](Cn1c(=O)n(C(C)(C)C(=O)O)c(=O)c2c(C)c(-c3ncco3)sc21)OC1CCOCC1` [FIRSOCOSTAT] had an apparent permeability coefficient (Papp) in data set [5] of 5.5 ×10⁻⁶ cm/s. The CLint scaled at 2 h, 1 µM in data set [7] turned out to be 23 mL/min/kg. The log distribution coefficient (logD) in data set [8] turned out to be 1.1. The CLH in data set [15] was 11.3 mL/min/kg; in data set [18] it was 10 mL/min/kg. For the same molecule, the fraction unbound in data set [10] worked out at 0.0172; in data set [12], 0.0284. Moreover, the blood plasma ratio in [16] was determined as 0.623; in data set [17], 0.655.

In turn, `Cc1ccc(S(=O)(=O)NCCc2ccc(Oc3ccc(F)c(F)c3)cc2)cc1C(=O)O` yielded a pKa at 0.3 h in [3] of 3.4. In data set [5], this molecule displayed an apparent permeability coefficient (Papp) of 7.3 ×10⁻⁶ cm/s. This molecule also had an intrinsic metabolic clearance (CLint scaled) at 2 h, 1 µM in data set [7] of 19 mL/min/kg. Further, in data set [8], the logD turned out to be 1.6. The CLH was found to be 6.1 mL/min/kg in data set [15] and 0.72 mL/min/kg in data set [18]. For the same molecule, the fraction unbound was determined as 0.00229 in data set [10] and 0.00107 in data set [12]. Besides, the blood plasma ratio was determined as 0.562 in data set [16] and 0.55 in data set [17].
